# Laboratory results taken from US9125940B2, “Compositions and methods for treating macular edema” (priority 2011, dated 2015).
# Test system: macular edema
# Assay: Case report Example 1: patient with macular edema after central vein occlusion in the left eye, OCT, vision acuity and eye pressure
# Type: in vivo, human
# Description: A patient experienced central vein occlusion in their left eye and subsequently suffered macular edema in 2005. Weak drusens were found in both of their eyes. […] The patient received corsteroid injection in the left eye. The macular edema went away for four months. However, the left eye pressure went up to 35-40 mmHg. Eye drops for lowering eye pressure were used to treat the high eye pressure. Within half a year, the patient developed cataract in their left eye and shortly thereafter advanced to a point that their left eye lost most vision and the eye specialist recommended surgery to remove the cataract. At the time of the surgery, it was discovered that the patient's macular edema had come back and it was rather severe. Avastin injection was then employed to treat macular edema. The edema went away for a month but still came back 2-3 months afterwards. At this point, the patient was notified that regular injection would be required for the rest of their life. As shown in the images from Optical Coherence Tomography (OCT) (FIG. 1), macular edema returned three months after the Avastin injection. Such was a repeated phenomenon since 2005, for more than three years. Macular edema re-occurred typically 3 months following Avastin injection. […].
# [1] = June 2008, before treatment with the composition, FIG. 1
substance,measurement,setting,value
Avastin: Avastin injection employed to treat macular edema (anti-VEGF),ocular pressure three months after injection,[1],35 mmHg
same,vision acuity three months after injection,[1],20/40
same,time to re-occurrence of macular edema following injection,"left eye, intravitreal injection, repeated for more than three years",~3 months
